Ends that are not written are not given here.
Assays:
[1] = system: serum IgE from 15 patients suffering from mite rhinallergosis; assay: Enzyme antibody assay: binding of solid phase Der p II overlapping peptides to patients' serum IgE; set-up: species or system human; details: serum from each of 15 patients
Method: The complete primary structure of the amino acid sequence of a Der p II protein was determined after cDNA was isolated therefrom by Chua et al. (Int. Arch. Allergy Appl. Immunol. 91: 118-123, 1990). Based on the amino acid sequence, peptides were synthesized on a solid phase using a multipin system (manufactured by Chiron) and coupling reagents, Fmoc-amino acid and DCC (dicyclohexyl carbodiimide) (Geysen, H.M. et al., Proc. Natl. Acad. Sci. USA. 81:3998-4002, 1984). Sixty-one kinds of peptides were synthesized, the first peptide comprising the first through ninth amino acids of the N-terminal of Der p II, the second peptide comprising the third through eleventh amino acids of the N-terminal, and the third through 61st peptides being prepared in an analogous manner.
The RAST (radio-allergosorbent test, Pharmacia) values as determined using antigens from two mite species, Dermatophagoides pteronyssinus (Der p) and Dermatophagoides farina (D f), were class 4. Each of the above-mentioned 61 synthesized peptides and 100 µl of each patient's serum were placed in a 96-well plate and reacted overnight at room temperature. Synthesized peptides in a solid phase were washed three times to remove the patient's serum using a washing solution of 0.05% Tween 20/0.15 M NaCl/Tris-HCl (pH 7.5). 100 µl of galactosidase-labelled anti-human IgE antibodies (Pharmacia) were diluted to 40-fold using a 1:9 diluted Block-ace (product of Dainippon Seiyaku K.K.). The diluted solution was added to a 96-well plate, each synthesized solid phase peptide was also added, and reaction, was allowed to proceed overnight at room temperature. The synthesized solid phase peptide was washed with the same washing solution five times. Thereafter, to a 96-well black plate (manufactured by Dainippon Seiyaku K.K.), were added 200 µl of a solution of 0.1 mM 4-methylumbelliferyl-β-D-galactopyranoside in 0.1% bovine serum albumin/0.1 M NaCl/1 mM MgCl₂/0.1% sodium azide/10 mM phosphate buffer (pH 7.0). Subsequently, the synthesized solid phase peptide was added and reacted for 2 hours at 37°C. After completion of reaction, 100 µl of a reaction terminating solution (0.1 M glycin/NaOH, pH 10.3) were added to each well, and absorbance was measured using a fluorospectrophotometer for 96-well plates (Manufactured by Flow). This reaction was studied for each of 15 patients.

[2] = system: pooled patients' serum IgE; assay: Binding inhibition assay: pooled patients' serum IgE to mite body extract (MBE); set-up: species or system human; details: peptide concentration of about 5 µg/ml - 5 mg/ml; pooled serum of 10 patients
Method: A crude mite body extract (MBE) was prepared from a mite, Dermatophagoides pteronyssinus (Der p), by homogenizing Der p mite bodies in 0.15 M NaCl/phosphate buffer (pH 7.3, PBS) using a Teflon homogenizer and centrifugally separating to collect the supernatant. A pooled serum IgE from patients was prepared by blending sera from 10 patients suffering from rhinallergosis caused by mites (RAST values with respect to Dermat ophagoides pteronyssinus: 3 or more). The peptide (Der p II 55-63) was synthesized by a Fmoc method using a peptide synthesizer pssm 8 manufactured by Shimadzu Corporation. The results of the synthesis were confirmed by an amino acid analysis and by an analysis of the primary structure. The MBE was added to each well of a 96-well black plate (Dainippon Seiyaku k.K.) so that the amount of protein contained was 1 µg/well (100 µl). The plate was allowed to stand overnight at 4°C. […] After completion of reaction, 100 µl of a reaction terminating liquid (0.1 M glycin/NaOH, pH 10.3) were added to each well, and absorbance was measured using a fluorospectrophotometer for 96-well plates (Manufactured by Flow). The absorbance in a control which was prepared by adding a PBS solution in place of the peptide was taken as 100%.

[3] = system: basophils artificially sensitized in a passive manner with serum IgEs from patients suffering from rhinallergosis caused by mites; assay: Passive histamine release (inhibition) test with passively sensitized basophils; type: cell-based, human
Method: To 20 ml of heparinized venous blood, 5 ml of a 4.5% dextran solution were added and the mixture was allowed to stand for 30 to 60 minutes at room temperature. The upper leukocyte layer was extracted and subjected to a repetitive centrifugal operation. The leukocytes were then washed with PBS. To the leuokocytes in a precipitated fraction, 20 ml of a lactate buffer (pH 3.9, 4°C) were added and thoroughly mixed. After cooling the mixture on ice for 2 to 5 minutes, the pH was returned to neutral by adding PBS (25 ml). By this operation, IgEs on basophils were released. The leukocytes were washed well with PBS and suspended in 0.5% human albumin/PBS. 100 µl of cell suspension (approximately 2 x 10⁵ cells/well) were added to a V-bottom 96-well plate. Fifty µl of a pooled serum of patients suffering from rhinallergosis caused by mites were further added, and reaction was allowed to proceed for 1 hour at 37°C. This procedure caused serum IgEs from the patients suffering from rhinallergosis caused by mites to be bound to IgE receptors. Thus, basophils artificially sensitized in a passive manner with serum IgEs from patients suffering from rhinallergosis caused by mites can be obtained (Pruzansky J.J. et al., J. Immunol., 131; 1949-1953, 1983). The plate was centrifuged to remove 100 µl of a supernatant. 100 µl of a 0.5% human albumin/PBS were added to the residue and centrifuged again. The centrifugal operation was repeated twice, and the cells were then washed. 100 µl of a Der p II peptide (55-63) having a predetermined concentration of PBS were combined with 50 µl of an MBE (10 µg/50 µl) or PBS, and allowed to react for 30 minutes at 37°C. The plate was then centrifuged to collect 100 µl of a supernatant. The amount of histamine was determined using a histamine assay kit manufactured by Eiken Kagaku K.K.
Essentially, a histamine release test is performed to determine the amount of histamine released when an antigen solution (an allergen solution) is added to a sample of whole blood (fresh blood) from an allergic patient. […]

KASIDGLEV [synthesized peptide No. 28]
binding reactions with IgE antibodies [1]: exhibited binding reactions with IgE antibodies
inhibition of binding of pooled patients' serum IgE to MBE [2]: 20%
suppression of histamine release caused by MBE ([3]; low peptide concentrations): could not suppress histamine release
suppression of histamine release caused by MBE ([3]; peptide concentration 7.55 mg/ml, MBE 10 µg/50 µl): about 90%
histamine release ([3]; substance added alone to passively sensitized basophils): histamine was scarcely released
